Reference: patent US20220324835A1 (Nurix Therapeutics, Inc., priority 2018, published 2022)
pIC50: −log10 of the molar value.

Legend:
[1] = biological target: T1, Cbl-b (Homo sapiens, UniProt Q13191); assay: Cbl-b activity assay (Cbl-b inhibition assay), TR-FRET of Cbl-b interaction with UbcH5B-Ub; type: biochemical; settings: assay buffer with 100 mM NaCl, 60 nM Src kinase; read-out: Cbl-b activity IC50
Method in brief: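 TR-FRET readout of Cbl-b binding to Bodipy-fluorescein N-terminally labeled Ub conjugated to UbcH5B C85K, measured with compound present. After compound incubation, 60 nM Src kinase with 1 mM ATP and 5 mM MgCl2 (final) was added for 1.5 h, then a further 1 h incubation; asterisked values used 50 mM NaCl buffer and 30 nM Src.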

[2] = system: T-cell; assay: IL-2 secretion from T-cells stimulated with anti-CD3 antibody alone (Biological Example 2); type: cell-based; settings: primary human total T-cells, read-out: IL-2 secretion, Anti-CD3 stimulation, fold change over baseline; for fold induction at 1 µM: 1 μM compound; for fold induction at 8 µM: 8 μM compound
[3] = system: T-cell; assay: CD25 cell surface staining on T-cells co-stimulated with anti-CD3 and anti-CD28 antibody (Biological Example 2); type: cell-based, human; settings: Homo sapiens, T-cell, primary human total T-cells, baseline = anti-CD3/anti-CD28 stimulated cells without inhibitor, read-out: CD25 staining, Anti-CD3/Anti-CD28 stimulation, fold change over baseline; for fold induction at 0.3 µM: 0.3 μM compound; for fold induction at 1 µM: 1 μM compound; for fold induction at 4 µM: 4 μM compound
Method in brief: (§1)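 No assay protocol given; T-cells stimulated with anti-CD3 alone or anti-CD3 plus anti-CD28, with or without Cbl-b inhibitor. Activation read as IL-2 secretion or CD25 surface staining, expressed as fold over baseline from uninhibited cells […].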

[4] = system: T-cell; assay: CD25 cell surface staining on T-cells stimulated with anti-CD3 antibody alone (Biological Example 2); type: cell-based; settings: primary human total T-cells, baseline = anti-CD3/anti-CD28 stimulated cells without inhibitor, read-out: CD25 staining, Anti-CD3 stimulation, fold change over baseline; for fold induction at 1 µM: 1 μM compound; for fold induction at 8 µM: 8 μM compound
[5] = biological target: T1, Cbl-b; assay: Cbl-b inhibition assay (Cbl-b activity assay, FRET, Biological Example 1; 100 mM NaCl, 60 nM Src kinase); type: biochemical; settings: upper bound stated in text lists; read-out: IC50 values in the Cbl-b inhibition assay of Biological Example 1
Method in brief: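 TR-FRET assay using N-terminal biotinylated Avi-tagged Cbl-b bound to streptavidin-terbium, Src kinase for Cbl-b phosphorylation, and UbcH5B irreversibly conjugated to Bodipy-Fluorescein-ubiquitin. Phosphorylated Cbl-b binds UbcH5B-Ub, bringing the fluorophores together; inhibition is read as loss of FRET signal.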

[6] = system: T-cell; assay: IL-2 secretion from T-cells co-stimulated with anti-CD3 and anti-CD28 antibody (Biological Example 2); type: cell-based, human; settings: Homo sapiens, T-cell, primary human total T-cells, baseline = anti-CD3/anti-CD28 stimulated cells without inhibitor, read-out: IL-2 secretion, Anti-CD3/Anti-CD28 stimulation, fold change over baseline; for fold induction at 0.3 µM: 0.3 μM compound; for fold induction at 1 µM: 1 μM compound; for fold induction at 4 µM: 4 μM compound
Method in brief: as §1

T1 sequence (Q13191 36-427): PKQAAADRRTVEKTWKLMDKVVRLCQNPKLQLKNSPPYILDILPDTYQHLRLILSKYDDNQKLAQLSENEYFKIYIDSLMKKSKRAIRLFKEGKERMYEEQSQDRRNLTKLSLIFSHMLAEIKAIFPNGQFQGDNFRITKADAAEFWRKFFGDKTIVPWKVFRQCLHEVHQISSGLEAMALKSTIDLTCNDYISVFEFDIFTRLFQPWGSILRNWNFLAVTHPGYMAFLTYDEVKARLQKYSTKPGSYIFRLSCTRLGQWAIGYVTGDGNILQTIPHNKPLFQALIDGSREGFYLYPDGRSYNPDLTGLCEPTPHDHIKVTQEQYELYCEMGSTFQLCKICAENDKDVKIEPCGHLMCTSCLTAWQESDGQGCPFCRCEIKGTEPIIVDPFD

Row | SMILES | pIC50 [1] | fold induction at 1 µM [2] | fold induction at 8 µM [2] | fold induction at 0.3 µM [3] | fold induction at 1 µM [3] | fold induction at 4 µM [3] | fold induction at 1 µM [4] | fold induction at 8 µM [4] | pIC50 [5] | fold induction at 0.3 µM [6] | fold induction at 1 µM [6] | fold induction at 4 µM [6]
1 | C[C@H](c1cc2c(c(C(F)(F)F)c1)CN(c1cccc([C@@](C)(F)C(F)(F)c3nncn3C)c1)C2=O)N1CC[C@H](F)C1 [Compound 459, 6-((R)-1-((S)-3-fluoropyrrolidin-1-yl)ethyl)-2-(3-((R)-1,1,2-trifluoro-1-(4-methyl-4H-1,2,4-triazol-3-yl)propan-2-yl)phenyl)-4-(trifluoromethyl)isoindolin-1-one] | > 7.00 | > 0.201 | > 0.201 | 1.01 to 1.3 | 1.31 to 1.5 | 1.51 to 1.75 | > 1 | > 1 | ≥ 7.00 | 2.51 to 5 | > 7.5 | > 7.5
2 | C[C@@H](c1cc2c(c(C(F)(F)F)c1)CN(c1cccc([C@@](C)(F)C(F)(F)c3nncn3C)c1)C2=O)N1CC[C@H](F)C1 [Compound 460, 6-((S)-1-((S)-3-fluoropyrrolidin-1-yl)ethyl)-2-(3-((R)-1,1,2-trifluoro-1-(4-methyl-4H-1,2,4-triazol-3-yl)propan-2-yl)phenyl)-4-(trifluoromethyl)isoindolin-1-one] | > 7.00 | > 0.201 | > 0.201 | 1.31 to 1.5 | 1.51 to 1.75 | 1.51 to 1.75 | > 1 | > 1 | ≥ 7.00 | > 7.5 | > 7.5 | > 7.5
3 | Cn1cnnc1C(F)(F)[C@](C)(F)c1cccc(N2Cc3c(cc(CN4C[C@@H](F)[C@@H](F)C4)cc3C(F)(F)F)C2=O)c1 [Compound 461, 6-(((3R,7S)-3,4-difluoropyrrolidin-1-yl)methyl)-2-(3-((R)-1,1,2-trifluoro-1-(4-methyl-4H-1,2,4-triazol-3-yl)propan-2-yl)phenyl)-4-(trifluoromethyl)isoindolin-1-one] | > 7.00 | 0.151 to 0.2 | > 0.201 | 1.31 to 1.5 | 1.31 to 1.5 | 1.51 to 1.75 | > 1 | > 1 | ≥ 7.00 | 2.51 to 5 | 5 to 7.5 | > 7.5
4 | Cn1cnnc1C(F)(F)C1(c2cccc(N3Cc4c(cc(CN5CC[C@H](F)C5)cc4C(F)(F)F)C3=O)c2)CC1 [Compound 462, (S)-2-(3-(1-(difluoro(4-methyl-4H-1,2,4-triazol-3-yl)methyl)cyclopropyl)phenyl)-6-((3-fluoropyrrolidin-1-yl)methyl)-4-(trifluoromethyl)isoindolin-1-one] | > 7.00 | > 0.201 | – | 1.01 to 1.3 | 1.31 to 1.5 | – | > 1 | – | ≥ 7.00 | 5 to 7.5 | > 7.5 | –
5 | CC(c1cc2c(c(C(F)(F)F)c1)CN(c1cccc([C@H]3C[C@H]3c3nncn3C)c1)C2=O)N1CC[C@H](F)C1 (stereo partly drawn) [Compound 466, 6-(1-((S)-3-fluoropyrrolidin-1-yl)ethyl)-2-(3-((1S,2R)-2-(4-methyl-4H-1,2,4-triazol-3-yl)cyclopropyl)phenyl)-4-(trifluoromethyl)isoindolin-1-one] | > 7.00 | > 0.201 | > 0.201 | 1.31 to 1.5 | 1.51 to 1.75 | 1.51 to 1.75 | > 1 | > 1 | ≥ 7.00 | 2.51 to 5 | > 7.5 | > 7.5
6 | CCOc1cc(N2Cc3c(cc(CN4CC[C@H](F)C4)cc3C(F)(F)F)C2=O)cc(C2(Cc3nncn3C)COC2)c1 [Compound 468, 2-(3-ethoxy-5-{3-[(4-methyl-4H-1,2,4-triazol-3-yl)methyl]oxetan-3-yl}phenyl)-6-{[(3×)-3-fluoropyrrolidin-1-yl]methyl}-4-(trifluoromethyl)-2,3-dihydro-1H-isoindol-1-one] | > 7.00 | > 0.201 | – | 1.31 to 1.5 | 1.31 to 1.5 | – | > 1 | – | ≥ 7.00 | 5 to 7.5 | > 7.5 | –
7 | CCOc1cc([C@@](C)(F)C(F)(F)c2nncn2C)cc(NC(=O)c2cc(C)nc(C3CC3)n2)n1 [Compound 469, 2-cyclopropyl-N-{6-ethoxy-4-[(2R)-1,1,2-trifluoro-1-(4-methyl-4H-1,2,4-triazol-3-yl)propan-2-yl]pyridin-2-yl}-6-methylpyrimidine-4-carboxamide] | 6.52 to 7.00 | 0.101 to 0.15 | – | 1.01 to 1.3 | 1.01 to 1.3 | – | 0.801 to 1 | – | ≥ 6.52 | 1.01 to 2.5 | 1.01 to 2.5 | –
8 | Cn1cnnc1C[C@]1(c2cccc(N3Cc4c(cccc4C(F)(F)F)C3=O)c2)C[C@H](CO)C1 [Compound 470, 2-{3-[(1R,3R)-3-(hydroxymethyl)-1-[(4-methyl-4H-1,2,4-triazol-3-yl)methyl]cyclobutyl]phenyl}-4-(trifluoromethyl)-2,3-dihydro-1H-isoindol-1-one] | 6.52 to 7.00 | 0.101 to 0.15 | > 0.201 | 1.31 to 1.5 | 1.51 to 1.75 | 1.51 to 1.75 | 0.801 to 1 | > 1 | ≥ 6.52 | 1.01 to 2.5 | 2.51 to 5 | 5 to 7.5
9 | C[C@H](Cc1nocc1C(F)(F)F)c1cccc(N2Cc3c(cc(C(=O)N4CC[C@H](O)C4)cc3C(F)(F)F)C2=O)c1 [Compound 484, 6-[(3S)-3-hydroxypyrrolidine-1-carbonyl]-4-(trifluoromethyl)-2-[3-[(2R)-1-[4-(trifluoromethyl)-1,2-oxazol-3-yl]propan-2-yl]phenyl]-2,3-dihydro-1H-isoindol-1-one] | 6.52 to 7.00 | 0.051 to 0.1 | > 0.201 | 1.01 to 1.3 | 1.01 to 1.3 | 1.31 to 1.5 | 0.601 to 0.8 | > 1 | ≥ 6.52 | 1.01 to 2.5 | 1.01 to 2.5 | 2.51 to 5
10 | C[C@H](Cc1nocc1C(F)(F)F)c1cccc(N2Cc3c(cc(CN4CC[C@H](F)C4)cc3C(F)(F)F)C2=O)c1 [Compound 485, 6-[[(3S)-3-fluoropyrrolidin-1-yl]methyl]-4-(trifluoromethyl)-2-[3-[(2R)-1-[4-(trifluoromethyl)-1,2-oxazol-3-yl]propan-2-yl]phenyl]-2,3-dihydro-1H-isoindol-1-one] | 6.52 to 7.00 | < 0.05 | 0.101 to 0.15 | 1.01 to 1.3 | 1.01 to 1.3 | 1.31 to 1.5 | 0.601 to 0.8 | > 1 | ≥ 6.52 | 1.01 to 2.5 | 1.01 to 2.5 | 2.51 to 5
